The source of these data is patent US20090124588A1, “Androstane 17-Alpha-Carbonate for Use in the Treatment of Inflammatory and Allergic Conditions” (Glaxo Group Limited, priority 2005, published 2009).

SMILES strings stand for the structures.

Holding throughout (assay type): cell-based
In assay [1] the target is T1, glucocorticoid receptor (Homo sapiens, UniProt P04150).
T1 sequence (P04150 1-777): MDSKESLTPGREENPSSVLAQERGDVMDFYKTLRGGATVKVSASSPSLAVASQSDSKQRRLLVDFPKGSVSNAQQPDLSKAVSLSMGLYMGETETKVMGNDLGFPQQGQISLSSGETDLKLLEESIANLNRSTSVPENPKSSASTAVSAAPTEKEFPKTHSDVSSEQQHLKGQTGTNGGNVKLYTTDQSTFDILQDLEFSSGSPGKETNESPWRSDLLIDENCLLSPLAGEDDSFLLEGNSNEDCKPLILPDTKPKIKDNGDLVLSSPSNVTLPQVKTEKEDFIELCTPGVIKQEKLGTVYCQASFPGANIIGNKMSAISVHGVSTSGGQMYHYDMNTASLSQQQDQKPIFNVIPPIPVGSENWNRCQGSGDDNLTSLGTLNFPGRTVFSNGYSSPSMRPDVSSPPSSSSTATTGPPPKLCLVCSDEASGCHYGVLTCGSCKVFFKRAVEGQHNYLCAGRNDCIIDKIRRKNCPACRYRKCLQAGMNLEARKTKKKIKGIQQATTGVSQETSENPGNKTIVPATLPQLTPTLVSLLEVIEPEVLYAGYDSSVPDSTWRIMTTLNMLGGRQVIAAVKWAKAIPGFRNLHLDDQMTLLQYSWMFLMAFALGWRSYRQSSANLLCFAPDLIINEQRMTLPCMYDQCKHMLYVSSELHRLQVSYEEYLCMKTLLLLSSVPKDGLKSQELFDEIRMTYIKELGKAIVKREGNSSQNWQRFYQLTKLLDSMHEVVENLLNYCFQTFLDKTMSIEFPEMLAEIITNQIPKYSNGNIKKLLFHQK
The experiment in a line: Transactivation activity of glucocorticoid agonists (MMTV-LTR renilla luciferase reporter in A549 cells). The conditions noted are these: 6 hour at 37° C., read-out: maximal response relative to Dexamethasone (100%). The procedure: The functional assay based on that described by R. J. H. Austin et al., Eur Resp J. (2002), 20, 1386-1392 measures the ability of compounds to directly transactivate gene expression. A549 cells stably transfected with a reporter gene containing the glucocorticoid responsive region of the mouse mammary tumour virus long terminal repeat (MMTV-LTR) coupled to renilla luciferase were treated with test compounds at appropriate doses for 6 hour at 37° C. The amount of luciferase activity present within the cells is then determined by measuring the light emitted following incubation with a suitable substrate. Dose response curves were constructed from which EC50 values were estimated and from which maximal responses are calculated relative to Dexamethasone (100%).
In general terms: A reporter such as luciferase makes a cellular process visible.

Assay [2] deals with T1, glucocorticoid receptor. The experiment in a line: Transrepression activity of glucocorticoid agonists (NF-κB/ELAM-sPAP reporter in A549 cells, TNF stimulated). Conditions: NF-κB responsive ELAM promoter-sPAP reporter, compound 1 hour, TNF 10 ng/ml 16 hours, read-out: pEC50 transrepression (converted). As to the method: The functional assay based on that described by K. P. Ray et al., Biochem J. (1997), 328, 707-715 provides a measure of transrepressive activity of a glucocorticoid agonist. A549 cells stably transfected with a reporter gene containing the NF-κB responsive elements from the ELAM gene promoter coupled to sPAP (secreted alkaline phosphatase) are treated with test compounds at appropriate doses for 1 hour at 37° C. The cells are then stimulated with tumour necrosis factor (TNF, 10 ng/ml) for 16 hours, at which time the amount of alkaline phosphatase produced is measured by a standard colourimetric assay. Dose response curves were constructed from which EC50 values were estimated.

Another assay has as its target T2, Progesterone Receptor (Homo sapiens, UniProt P06401).
T2 construct: expressed in transfected cells; host or cells: CV-1 cells transduced with BacMam virus
T2 sequence (P06401 1-933): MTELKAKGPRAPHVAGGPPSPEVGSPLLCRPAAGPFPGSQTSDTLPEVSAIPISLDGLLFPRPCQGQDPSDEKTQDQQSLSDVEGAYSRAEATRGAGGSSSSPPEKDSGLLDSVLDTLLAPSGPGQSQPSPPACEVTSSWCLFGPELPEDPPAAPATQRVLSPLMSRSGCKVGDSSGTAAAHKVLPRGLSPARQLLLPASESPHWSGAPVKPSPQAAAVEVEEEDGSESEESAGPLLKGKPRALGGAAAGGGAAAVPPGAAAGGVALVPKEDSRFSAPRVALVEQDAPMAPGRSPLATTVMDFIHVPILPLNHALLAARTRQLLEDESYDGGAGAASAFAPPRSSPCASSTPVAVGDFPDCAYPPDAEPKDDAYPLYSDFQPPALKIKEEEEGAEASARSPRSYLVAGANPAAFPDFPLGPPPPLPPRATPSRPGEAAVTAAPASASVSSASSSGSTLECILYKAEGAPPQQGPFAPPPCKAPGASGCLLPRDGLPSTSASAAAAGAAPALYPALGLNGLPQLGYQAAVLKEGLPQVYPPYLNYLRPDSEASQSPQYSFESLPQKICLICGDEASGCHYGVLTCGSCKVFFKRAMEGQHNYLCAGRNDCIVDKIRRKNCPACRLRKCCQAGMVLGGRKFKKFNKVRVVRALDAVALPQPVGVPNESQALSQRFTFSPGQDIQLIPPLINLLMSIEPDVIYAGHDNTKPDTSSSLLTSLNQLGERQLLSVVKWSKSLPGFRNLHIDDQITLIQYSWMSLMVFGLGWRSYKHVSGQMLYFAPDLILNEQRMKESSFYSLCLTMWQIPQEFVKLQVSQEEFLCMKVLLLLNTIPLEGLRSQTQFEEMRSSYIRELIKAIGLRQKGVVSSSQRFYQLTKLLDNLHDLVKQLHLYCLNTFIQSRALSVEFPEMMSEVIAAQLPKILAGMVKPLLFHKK
Put plainly: Progesterone receptor activity (CV-1 cells transduced with PRb-BacMam and MMTV-BacMam). Conditions: 24 h, Steady Glo, read-out: pEC50 progesterone receptor (converted). The procedure:
A T225 flask of CV-1 cells at a density of 80% confluency was washed with PBS, detached from the flask using 0.25% trypsin and counted using a Sysmex KX-21N. Cells were diluted in DMEM containing 10% Hyclone, 2 mM […] and 1% Pen/Strep at 140 cells/μl and transduced with 10% PRb-BacMam and 10% MMTV-BacMam. […] of suspension cells were dispensed to each well of white Nunc 384-well plates, containing compounds at the required concentration. After 24 h 10 μl of Steady Glo were added to each well of the plates. Plates were incubated in the dark for 10 min before reading them on a Viewlux reader. Dose response curves were constructed from which pEC50 values were estimated.

In the case of `C[C@@H]1C[C@H]2[C@@H]3C[C@H](F)C4=CC(=O)C=C[C@]4(C)[C@@]3(F)[C@@H](O)C[C@]2(C)[C@@]1(OC(=O)OC(C)(C)C)C(=O)OCC#N` [Example 1, Cyanomethyl (6α,11β,16α,17α)-17-({[(1,1-dimethylethyl)oxy]carbonyl}oxy)-6,9-difluoro-11-hydroxy-16-methyl-3-oxoandrosta-1,4-diene-17-carboxylate], the Emax at glucocorticoid receptor [1] was less than 10%. The results for the EC50 at glucocorticoid receptor [2] and at Progesterone Receptor were less than 0.1 nM and more than 100 nM, respectively.

With `CCC(C)(C)OC(=O)O[C@]1(C(=O)OCC#N)[C@H](C)C[C@H]2[C@@H]3C[C@H](F)C4=CC(=O)C=C[C@]4(C)[C@@]3(F)[C@@H](O)C[C@@]21C` [Example 2, Cyanomethyl (6α,11β,16α,17α)-17-({[(1,1-dimethylpropyl)oxy]carbonyl}oxy)-6,9-difluoro-1-hydroxy-16-methyl-3-oxoandrosta-1,4-diene-17-carboxylate], the Emax at glucocorticoid receptor [1] was less than 10%. The results for the EC50 at glucocorticoid receptor [2] and on Progesterone Receptor were less than 0.1 nM and more than 100 nM, respectively.
